# Test results as given in patent publication US20240376154A1, “BIS-INTERCALATING PEPTIDES, CONJUGATES AND METHODS OF USE” (ZYMEWORKS BC INC., priority 2023, published 2024).
# Conditions: amide bond; 32-membered ring
row,Substance,"ring closure, isolated yield [%]"
1,"Benzyl tert-butyl ((7R,11S,19aS,26R,30S,38aS)-11-isopropyl-12,15,31,34-tetramethyl-6,10,13,16,19,25,29,32,35,38-decaoxo-30-phenylhexatriacontahydro-2H,6H-dipyrido[1,2-a:1′,2′-q][1,4,7,10,13,17,20,23,26,29]decaazacyclodotriacontine-7,26-diyl)dicarbamate",26
2,"Benzyl tert-butyl ((7R,11S,19aS,26R,30S,38aS)-11,30-di((S)-sec-butyl)-12,15,31,34-tetramethyl-6,10,13,16,19,25,29,32,35,38-decaoxohexatriacontahydro-2H,6H-dipyrido[1,2-a:1′,2′-q][1,4,7,10,13,17,20,23,26,29]decaazacyclodotriacontine-7,26-diyl)dicarbamate",90
3,"Benzyl tert-butyl ((7R,11S,19aS,26R,30S,38aS)-11,30-diisopropyl-12,15,31,34-tetramethyl-6,10,13,16,19,25,29,32,35,38-decaoxohexatriacontahydro-2H,6H-dipyrido[1,2-a:1′,2′-q][1,4,7,10,13,17,20,23,26,29]decaazacyclodotriacontine-7,26-diyl)dicarbamate",69
4,"Benzyl tert-butyl ((7R,11S,19aS,26R,30S,38aS)-11,30-diisopropyl-12,31-dimethyl-6,10,13,16,19,25,29,32,35,38-decaoxohexatriacontahydro-2H,6H-dipyrido[1,2-a:1′,2′-q][1,4,7,10,13,17,20,23,26,29]decaazacyclodotriacontine-7,26-diyl)dicarbamate",53
5,"Di-tert-butyl ((7R,8R,11S,19aS,26R,27R,30S,38aS)-11,30-diisopropyl-8,12,15,27,31,34-hexamethyl-6,10,13,16,19,25,29,32,35,38-decaoxodotriacontahydro-2H,6H,10H,25H-dipyrido[2,1-b1: 2′,1′-l][1,17]dioxa[4,7,10,13,20,23,26,29]octaazacyclodotriacontine-7,26-diyl)dicarbamate",50
6,"Benzyl tert-butyl ((13S,16R,19aS,32S,35R,38aS)-13,32-diisopropyl-8,14,27,33-tetramethyl-6,9,12,15,19,25,28,31,34,38-decaoxohexatriacontahydro-2H,6H-dipyrido[2,1-c: 2′,1′-s][1,4,7,10,13,17,20,23,26,29]decaazacyclodotriacontine-16,35-diyl)dicarbamate",57
7,"Benzyl tert-butyl ((7R,11S,19aS,26R,30S,38aS)-11-cyclohexyl-30-isopropyl-12,15,31,34-tetramethyl-6,10,13,16,19,25,29,32,35,38-decaoxohexatriacontahydro-2H,6H-dipyrido[1,2-a:1′,2′-q][1,4,7,10,13,17,20,23,26,29]decaazacyclodotriacontine-7,26-diyl)dicarbamate",58
8,"Benzyl tert-butyl ((7R,19aS,26R,30S,38aS)-30-isopropyl-11,11,12,15,31,34-hexamethyl-6,10,13,16,19,25,29,32,35,38-decaoxohexatriacontahydro-2H,6H-dipyrido[1,2-a:1′,2′-q][1,4,7,10,13,17,20,23,26,29]decaazacyclodotriacontine-7,26-diyl)dicarbamate",37
9,"Benzyl tert-butyl ((7′R,19a'S,26′R,30'S,38a'S)-30′-isopropyl-12′,15′,31′,34′-tetramethyl-6′,10′,13′,16′,19′,25′,29′,32′,35′,38′-decaoxotetratriacontahydro-2′H,6′H,12′H-spiro[cyclopropane-1,11′-dipyrido[1,2-a:1′,2′-q][1,4,7,10,13,17,20,23,26,29]decaazacyclodotriacontine]-7′,26′-diyl)dicarbamate",48
